# Results from ChEMBL document CHEMBL5291721, “A preclinical secondary pharmacology resource illuminates target-adverse drug reaction associations of marketed drugs” (Nat Commun, 2023).
# Key:
# [1] = biological target: Adenosine receptor A2a (Homo sapiens, UniProt P29274)
# [2] = biological target: T1, Alpha-1A adrenergic receptor (Homo sapiens, UniProt P35348); format: functional, cell-based
# T1 sequence (P35348 whole entry): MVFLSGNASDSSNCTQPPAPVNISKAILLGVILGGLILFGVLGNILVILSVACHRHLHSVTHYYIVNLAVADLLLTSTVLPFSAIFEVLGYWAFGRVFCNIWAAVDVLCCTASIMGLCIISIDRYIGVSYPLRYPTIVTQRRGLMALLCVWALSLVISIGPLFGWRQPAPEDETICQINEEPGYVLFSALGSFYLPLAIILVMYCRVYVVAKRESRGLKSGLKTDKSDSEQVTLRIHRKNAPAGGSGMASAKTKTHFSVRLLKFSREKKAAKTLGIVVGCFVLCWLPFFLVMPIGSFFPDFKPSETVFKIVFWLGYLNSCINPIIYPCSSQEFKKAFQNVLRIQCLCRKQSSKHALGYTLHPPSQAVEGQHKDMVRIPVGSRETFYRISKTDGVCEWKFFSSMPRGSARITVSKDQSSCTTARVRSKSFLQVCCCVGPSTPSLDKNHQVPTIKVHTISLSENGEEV
# [3] = biological target: Voltage-dependent L-type calcium channel subunit alpha-1C (Rattus norvegicus, UniProt P22002); format: functional
# Sequence of Voltage-dependent L-type calcium channel subunit alpha-1C (P22002 whole entry): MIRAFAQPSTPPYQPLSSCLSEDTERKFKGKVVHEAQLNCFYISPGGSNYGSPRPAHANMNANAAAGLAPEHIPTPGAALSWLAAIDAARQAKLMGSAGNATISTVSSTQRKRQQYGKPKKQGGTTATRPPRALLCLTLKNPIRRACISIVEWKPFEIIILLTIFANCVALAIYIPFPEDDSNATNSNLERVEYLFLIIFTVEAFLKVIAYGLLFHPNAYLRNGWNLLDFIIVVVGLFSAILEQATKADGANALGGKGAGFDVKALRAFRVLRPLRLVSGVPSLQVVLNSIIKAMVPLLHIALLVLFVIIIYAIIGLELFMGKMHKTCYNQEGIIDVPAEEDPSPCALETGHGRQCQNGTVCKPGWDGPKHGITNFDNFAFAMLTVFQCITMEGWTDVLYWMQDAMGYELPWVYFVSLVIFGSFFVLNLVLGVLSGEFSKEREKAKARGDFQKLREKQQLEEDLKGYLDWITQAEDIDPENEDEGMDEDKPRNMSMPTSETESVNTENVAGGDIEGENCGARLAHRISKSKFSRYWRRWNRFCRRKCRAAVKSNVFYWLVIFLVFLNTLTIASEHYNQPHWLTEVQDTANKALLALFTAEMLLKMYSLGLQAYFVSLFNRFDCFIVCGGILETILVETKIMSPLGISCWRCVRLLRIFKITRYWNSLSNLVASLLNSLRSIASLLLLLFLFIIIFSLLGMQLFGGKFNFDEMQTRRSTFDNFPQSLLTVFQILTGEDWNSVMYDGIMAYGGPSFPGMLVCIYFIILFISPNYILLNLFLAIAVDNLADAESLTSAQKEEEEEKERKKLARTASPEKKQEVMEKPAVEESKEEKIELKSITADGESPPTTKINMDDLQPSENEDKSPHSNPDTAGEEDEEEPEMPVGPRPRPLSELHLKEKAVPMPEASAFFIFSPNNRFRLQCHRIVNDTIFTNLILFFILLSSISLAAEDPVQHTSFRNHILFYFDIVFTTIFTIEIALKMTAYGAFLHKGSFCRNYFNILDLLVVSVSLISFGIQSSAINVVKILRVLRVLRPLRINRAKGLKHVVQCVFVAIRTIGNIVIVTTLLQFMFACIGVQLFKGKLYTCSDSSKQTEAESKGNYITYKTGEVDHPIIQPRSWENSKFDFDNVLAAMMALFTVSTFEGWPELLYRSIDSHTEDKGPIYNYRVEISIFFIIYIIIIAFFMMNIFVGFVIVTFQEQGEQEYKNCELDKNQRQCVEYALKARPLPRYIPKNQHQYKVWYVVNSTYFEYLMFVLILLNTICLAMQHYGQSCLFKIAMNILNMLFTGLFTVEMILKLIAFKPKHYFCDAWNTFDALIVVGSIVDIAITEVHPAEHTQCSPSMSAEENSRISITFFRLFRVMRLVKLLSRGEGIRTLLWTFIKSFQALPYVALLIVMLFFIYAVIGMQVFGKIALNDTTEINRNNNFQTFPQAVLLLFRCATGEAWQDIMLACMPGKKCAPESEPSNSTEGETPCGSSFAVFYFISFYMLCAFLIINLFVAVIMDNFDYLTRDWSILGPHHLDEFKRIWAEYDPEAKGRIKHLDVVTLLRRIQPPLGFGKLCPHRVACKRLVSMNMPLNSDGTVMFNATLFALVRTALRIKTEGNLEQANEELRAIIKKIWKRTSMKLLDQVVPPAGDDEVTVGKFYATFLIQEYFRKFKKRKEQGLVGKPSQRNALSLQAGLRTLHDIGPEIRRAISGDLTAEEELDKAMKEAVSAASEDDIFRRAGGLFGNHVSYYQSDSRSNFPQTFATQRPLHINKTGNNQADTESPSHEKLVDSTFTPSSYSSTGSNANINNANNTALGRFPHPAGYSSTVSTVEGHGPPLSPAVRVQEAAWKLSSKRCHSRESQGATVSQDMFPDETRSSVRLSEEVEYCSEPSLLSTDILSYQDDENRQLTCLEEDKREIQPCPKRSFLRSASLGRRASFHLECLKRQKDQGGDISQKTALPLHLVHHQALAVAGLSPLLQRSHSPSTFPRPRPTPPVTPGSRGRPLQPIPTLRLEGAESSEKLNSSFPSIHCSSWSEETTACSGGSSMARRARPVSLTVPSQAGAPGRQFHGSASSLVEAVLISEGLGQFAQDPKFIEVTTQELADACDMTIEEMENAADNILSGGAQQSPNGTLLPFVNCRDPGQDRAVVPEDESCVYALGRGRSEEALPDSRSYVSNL
# [4] = biological target: T2, Muscarinic acetylcholine receptor M1 (Homo sapiens, UniProt P11229); format: functional, cell-based
# T2 sequence (P11229 whole entry): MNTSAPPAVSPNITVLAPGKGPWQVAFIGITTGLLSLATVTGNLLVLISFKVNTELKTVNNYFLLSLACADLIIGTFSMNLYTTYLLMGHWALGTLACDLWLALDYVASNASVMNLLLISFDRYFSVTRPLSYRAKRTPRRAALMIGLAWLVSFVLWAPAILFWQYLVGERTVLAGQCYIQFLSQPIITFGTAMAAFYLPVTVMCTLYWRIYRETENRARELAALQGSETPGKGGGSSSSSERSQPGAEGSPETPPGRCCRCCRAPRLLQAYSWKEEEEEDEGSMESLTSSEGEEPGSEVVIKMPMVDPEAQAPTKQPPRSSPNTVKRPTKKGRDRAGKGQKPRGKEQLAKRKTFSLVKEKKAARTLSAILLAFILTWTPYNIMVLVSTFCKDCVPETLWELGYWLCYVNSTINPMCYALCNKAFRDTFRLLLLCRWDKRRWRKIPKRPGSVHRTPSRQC
# [5] = biological target: D(1A) dopamine receptor (Homo sapiens, UniProt P21728)
# Sequence of D(1A) dopamine receptor (P21728 whole entry): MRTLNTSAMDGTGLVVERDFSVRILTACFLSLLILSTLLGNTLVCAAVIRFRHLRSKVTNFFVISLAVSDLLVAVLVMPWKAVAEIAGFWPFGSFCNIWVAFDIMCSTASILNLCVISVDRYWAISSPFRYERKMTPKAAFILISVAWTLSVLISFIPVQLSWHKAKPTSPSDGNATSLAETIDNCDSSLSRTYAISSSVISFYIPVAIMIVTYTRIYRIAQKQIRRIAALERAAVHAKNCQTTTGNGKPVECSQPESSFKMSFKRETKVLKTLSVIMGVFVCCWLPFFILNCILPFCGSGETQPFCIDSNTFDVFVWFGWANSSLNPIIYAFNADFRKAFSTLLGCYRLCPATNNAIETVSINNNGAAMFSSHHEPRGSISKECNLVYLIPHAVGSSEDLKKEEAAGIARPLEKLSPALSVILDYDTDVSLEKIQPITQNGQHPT
# [6] = biological target: 5-hydroxytryptamine receptor 2B (Homo sapiens, UniProt P41595); format: functional, cell-based
# Sequence of 5-hydroxytryptamine receptor 2B (P41595 whole entry): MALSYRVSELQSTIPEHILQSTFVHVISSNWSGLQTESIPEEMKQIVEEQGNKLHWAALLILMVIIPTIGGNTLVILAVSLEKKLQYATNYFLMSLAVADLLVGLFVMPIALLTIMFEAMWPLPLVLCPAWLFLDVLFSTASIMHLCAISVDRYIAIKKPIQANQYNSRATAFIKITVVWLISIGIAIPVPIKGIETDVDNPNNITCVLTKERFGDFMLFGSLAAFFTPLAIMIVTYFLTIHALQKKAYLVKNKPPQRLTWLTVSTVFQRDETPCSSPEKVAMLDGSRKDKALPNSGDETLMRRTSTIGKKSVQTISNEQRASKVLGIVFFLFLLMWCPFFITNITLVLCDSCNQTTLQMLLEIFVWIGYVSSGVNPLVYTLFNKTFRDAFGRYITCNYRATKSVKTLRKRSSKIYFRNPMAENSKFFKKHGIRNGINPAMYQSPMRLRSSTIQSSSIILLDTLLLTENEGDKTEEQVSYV
# [7] = biological target: Kappa-type opioid receptor (Homo sapiens, UniProt P41145)
# Sequence of Kappa-type opioid receptor (P41145 whole entry): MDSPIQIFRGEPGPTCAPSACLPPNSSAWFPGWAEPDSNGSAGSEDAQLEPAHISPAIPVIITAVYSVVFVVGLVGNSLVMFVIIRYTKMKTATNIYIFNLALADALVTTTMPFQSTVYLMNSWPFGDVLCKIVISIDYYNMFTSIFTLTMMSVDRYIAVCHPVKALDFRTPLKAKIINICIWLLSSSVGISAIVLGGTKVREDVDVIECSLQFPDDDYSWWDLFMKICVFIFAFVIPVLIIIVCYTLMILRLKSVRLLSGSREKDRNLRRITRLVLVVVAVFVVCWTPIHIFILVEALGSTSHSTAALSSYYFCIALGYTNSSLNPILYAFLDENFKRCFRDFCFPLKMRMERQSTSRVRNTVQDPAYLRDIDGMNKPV
# Further: assay procedure not described here.
# Sequence of Adenosine receptor A2a (P29274 whole entry): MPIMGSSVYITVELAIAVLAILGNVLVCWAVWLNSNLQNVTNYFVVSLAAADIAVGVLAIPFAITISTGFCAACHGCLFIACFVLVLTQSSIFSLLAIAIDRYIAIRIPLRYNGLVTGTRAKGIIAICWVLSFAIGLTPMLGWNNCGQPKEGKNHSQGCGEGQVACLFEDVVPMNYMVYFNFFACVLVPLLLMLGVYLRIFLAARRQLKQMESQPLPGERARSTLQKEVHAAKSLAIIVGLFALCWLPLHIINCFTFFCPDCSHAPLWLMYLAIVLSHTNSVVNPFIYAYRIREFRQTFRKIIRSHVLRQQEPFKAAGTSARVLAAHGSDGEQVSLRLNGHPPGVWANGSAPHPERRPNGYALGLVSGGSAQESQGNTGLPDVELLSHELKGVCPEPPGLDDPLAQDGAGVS
compound,measurement,setting,value
C[C@@H]1C[C@H]2[C@@H]3C[C@H](F)C4=CC(=O)C=C[C@]4(C)[C@@]3(F)[C@@H](O)C[C@]2(C)[C@@]1(OC(=O)c1ccco1)C(=O)SCF [FLUTICASONE FUROATE],AC50,[1],> 10 µM
same,AC50,[2],> 30 µM
same,AC50,[3],> 10 µM
same,AC50,[4],> 30 µM
same,AC50,[5],> 30 µM
same,AC50,[6],> 10 µM
same,AC50,[7],> 10 µM
